The values that follow come from patent US20240139178A1, “METHOD FOR MANUFACTURING COMPOSITION FOR COMPOSITION FOR INCREASING COGNITIVE FUNCTION” (priority 2018, published 2024).

For the first experiment, the target named is T1, Aβ1-42 (Homo sapiens, UniProt P05067).
T1 construct: human A81-42 monomers (UniProtKB-P05067, a.a. 672-713)
T1 sequence (P05067 672-713): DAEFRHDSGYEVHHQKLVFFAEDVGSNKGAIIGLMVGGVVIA
The experiment in a line: Aβ aggregation inhibition test (Thioflavin T analysis). Type of experiment: biochemical. The conditions noted are these: 20 μM compound, 50 μM Aβ, 3 days; relative to control (100%). How it is done: Then, the compound was used diluted by using 6% DMSO (in DW) and used.
Triflupromazine hydrochloride (triflupromazine used in all the examples below is triflupromazine hydrochloride) was dissolved to a concentration of 5 mM in DMSO. The compound was then used diluted with 6% DMSO (in DW).
The Aβ solution was prepared by dissolving human A81-42 monomers (UniProtKB-P05067, a.a. 672-713) to 10 mM concentration in DMSO. Thereafter, the mixture was diluted to 100 uM by using DW and stored on ice.
On the other hand, Thioflavin-T (Sigma-Aldrich) was dissolved to the concentration of 5 mM in 50 mM glycine buffer (pH 8.5). Then, the resultant solution was diluted to the concentration of 50 μM by using 50 mM glycine buffer (pH 8.5) and stored in the dark while light was blocked.
(§1) 25 μL of the reaction solution in which the reaction was completed was added to each well of a 96-well fluorescence assay plate, and 75 μL of the Thioflavin-T solution prepared above was added to each well. After reacting for 5 minutes in the dark at room temperature, fluorescence values were measured at excitation 450 nm and emission 485 nm by using a multi-mode microplate reader.
The fluorescence value of the group (control) treated with Aβ alone and aggregated for 72 hours was considered as 100%, and the measured fluorescence values were expressed as a relative value thereto, and results thereof are shown in FIG. 1 and FIG. 2.
In addition, by performing the same test as described above for 20 μM of various compounds using 50 μM Aβ, the degree of Aβ aggregation was measured, and the result is expressed as a relative value for control (100%).
With `CCN1CCCC1CNC(=O)c1cc(S(=O)(=O)CC)c(N)cc1OC` (stereo not drawn) [Amisulpride], the “Aggregation (%)” value worked out at 96.29%. Regarding `Cc1nc2n(c(=O)c1CCN1CCC(c3noc4cc(F)ccc34)CC1)CCCC2` [Risperidone], the “Aggregation (%)” value is 117.68%.

On to `CN1CCN(CC/C=C2/c3ccccc3Sc3ccc(S(=O)(=O)N(C)C)cc32)CC1` [Thiothixene], for which the “Aggregation (%)” value amounted to 125.23%. Regarding `CC12CC3CC(C)(C1)CC(N)(C3)C2` [Mementine], the “Aggregation (%)” value worked out at 95.84%. In the case of `CN1CCN(C2=Nc3cc(Cl)ccc3Nc3ccccc32)CC1` [Clozapine], the “Aggregation (%)” value amounted to 99.14%.

The next experiment addresses T1, Aβ1-42. The experiment in a line: Aβ disaggregation test of rifamycin-based derivatives by Thioflavin T analysis. The conditions noted are these: 50 μM compound, 50 μM Aβ1-42 aggregated 3 days, then 2 days of reaction. Type of experiment: biochemical. As to the method: The compound was then used diluted with 6% DMSO (in DW).
The Aβ solution was prepared by dissolving Aβ 1-42 monomers to the concentration of 10 mM in DMSO. Thereafter, the mixture was diluted to 100 μM by using DW and stored on ice.
On the other hand, Thioflavin-T was dissolved to the concentration of 5 mM in 50 mM glycine buffer (pH 8.5). Then, the resultant solution was diluted to the concentration of 50 μM by using 50 mM glycine buffer (pH 8.5) and stored in the dark while light was blocked.
The Aβ solution prepared in Example 3.1. was placed in 1.5 mL microcentrifuge tubes, each having 50 μM of the Aβ solution, and then reacted at 37° C. for 72 hours.
Each 1.5 mL microcentrifuge tube was treated with 50 μM rifapentine-based derivatives, followed by reaction at 37° C. for 48 hours.
as §1
The fluorescence value of the group (control) treated with Aβ alone and aggregated for 72 hours by treating only Aβ was considered as 100%, and the measured fluorescence values were expressed as a relative value thereto, and results thereof are shown in FIG. 7.
Consider `CO[C@H]1/C=C/O[C@@]2(C)Oc3c(C)c(O)c4c(O)c(cc(OCC(=O)O)c4c3C2=O)NC(=O)/C(C)=C\C=C\[C@H](C)[C@H](O)[C@@H](C)[C@@H](O)[C@@H](C)[C@H](OC(C)=O)[C@@H]1C` [rifamycin B, {[(2S,12Z,14E,16S,17S,18R,19R,20R,21S,22R,23S,24E)-21-(acetyloxy)-5,6,17,19-tetrahydroxy-23-methoxy-2,4,12,16,18,20,22-heptamethyl-1,11-dioxo-1,2-dihydro-2,7-(epoxypentadeca[1,11,13]trienoimino)naphtho[2,1-b]furan-9-yl]oxy}acetic acid], for which the “Aβ disaggregation effect compared to the control” value is on record as “significant disaggregation did not occur”. Still for that read-out and setting: then `COC1C=COC2(C)Oc3c(C)c(O)c4c(O)c(c5c(c4c3C2=O)=NC2(CCN(CC(C)C)CC2)N=5)NC(=O)C(C)=CC=CC(C)C(O)C(C)C(O)C(C)C(OC(C)=O)C1C` [ripabutin, (S,12E,14S,15R,16S,17R,18R,19R,20S,21S,22E,24Z)-6,16,18,20-tetrahydroxy-1′-isobutyl-14-methoxy-7,9,15,17,19,21,25-heptamethyl-spiro[9,4-(epoxypentadeca[1,11,13]trienimino)-2H-furo[2″,3″:7,8]naphth[1,2-dimidazole-2,4″-piperidine]-5,10,26-(3H,9H)-trione-16-acetate], with “about 50%”; and “3-[[[4-(2-Methylpropyl)-1-piperazinyl]imino]methyl]rifamycin [rifamdin]”, with “about 50%”.

For the compound `CO[C@H]1/C=C/O[C@@]2(C)Oc3c(C)c(O)c4c(O)c(cc(O)c4c3C2=O)NC(=O)/C(C)=C\C=C\[C@H](C)[C@H](O)[C@@H](C)[C@@H](O)[C@@H](C)[C@H](OC(C)=O)[C@@H]1C` [rifamycin SV, 5,6,9,17,19,21-Hexahydroxy-23-methoxy-2,4,12,16,18,20,22-heptamethyl-2,7-(epoxypentadeca[1,11,13]trienimino)naphtho[2,1-b]furan-1,11(2H)-dione 21-acetate], the “Aβ disaggregation effect compared to the control” value is on record as “about 50%”. `CO[C@H]1/C=C/O[C@@]2(C)Oc3c(C)c(O)c4c(O)c(c(/C=N/N5CCN(C)CC5)c(O)c4c3C2=O)NC(=O)/C(C)=C\C=C\[C@H](C)[C@H](O)[C@@H](C)[C@@H](O)[C@@H](C)[C@H](OC(C)=O)[C@@H]1C` [rifampicin, 5,6,9,17,19,21-hexahydroxy-23-methoxy-2,4,12,16,18,20,22-heptamethyl-8-[N-(4-methyl-1-piperazinyl) formimidoyl]-2,7-(epoxypentadeca [1,11,13]trienimino)-naphtho [2,1-b] furan-1,11 (2H) -dione 21-acetate]: the “Aβ disaggregation effect compared to the control” value was “about 50%”. Same read-out and setting: in the case of `CO[C@H]1/C=C/O[C@@]2(C)Oc3c(C)c(O)c4c(O)c(c5c(nc6cc(C)ccn65)c4c3C2=O)NC(=O)/C(C)=C\C=C\[C@H](C)[C@H](O)[C@@H](C)[C@@H](O)[C@@H](C)[C@H](OC(C)=O)[C@@H]1C` (relative stereo) [rifaximin, [2S-(2R*,16Z,18E,20R*,21R*,22S*,23S*,24S*,25R*,26S*,27R*,22E)]-25-acetyloxy) -5,6,21,23-tetrahydroxy-27-methoxy-2,4,11,16,20,22,24,26-octamethyl-2,7-(epoxypentadeca [1,11,13] trienimino) benzofuro [4,5-e] pyrido [1,2-a] benzimidazole-1,15 (2H) -dione] it was “significant disaggregation did not occur”; in that of `CO[C@H]1/C=C/O[C@@]2(C)Oc3c(C)c(O)c4c(c3C2=O)C(=O)C=C(NC(=O)/C(C)=C\C=C\[C@H](C)[C@H](O)[C@@H](C)[C@@H](O)[C@@H](C)[C@H](OC(C)=O)[C@@H]1C)C4=O` [rifamycin S, 5,17,19,21-tetrahydroxy-23-methoxy-2,4,12,16,18,20,22-heptamethyl-2,7-(epoxypentadeca[1,11,13]trienimino)naphtho[2,1-b]furan-1,6,9,11(2H)-tetrone 21-acetate], 25%.
